Data from patent US20200278355A1, “CONJUGATED PROTEINS AND USES THEREOF” (THE SCRIPPS RESEARCH INSTITUTE, priority 2017, published 2020).

Molecular target: T1, NUDT8 (Homo sapiens, UniProt Q8WV74)
T1 construct: H460 cells or H460 cells expressing luciferase in a 10 cm plate were incubated with indicated compounds; endogenous in cells; host or cells: H460
Test: isoTOP-ABPP of compound-treated H460 cells: NUDT8
Assay type: cell-based
Conditions: NUDT8 C207; 40 μM
Protocol: For analysis of NR0B1 ligands or control compound reactivity, H460 cells or H460 cells expressing luciferase in a 10 cm plate were incubated with indicated compounds in serum/dye-free RPMI for 3 hours at 37° C. Cells were washed once ice-cold PBS and lysed in 1% Triton X-100 dissolved in PBS with protease inhibitors (Sigma) by sonication. Samples were clarified by centrifugation for 10 min at 16,000×g. Lysate was adjusted to 1.5 mg ml^−1 in 500 μL.
Samples were labeled for 1 h at ambient temperature with 100 μM iodoacetamide alkyne (1, IA-alkyne, 5 μL of 10 mM stock in DMSO). Samples were conjugated by copper-catalyzed azide-alkyne cycloaddition (CuAAC) to isotopically labeled, TEV-cleavable tags (TEV-tags). Heavy CuAAC reaction mixtures was added to the DMSO-treated or shGFP control samples and light CuAAC reaction mixture was added to compound-treated or shNRF2 samples. The CuAAC reaction mixture consisted of TEV tags (light or heavy, 10 μL of 5 mM stocks in DMSO, final concentration=100 μM), 1 mM tris(2-carboxyethyl)phosphine hydrochloride (TCEP; fresh 50× stock in water, final concentration=1 mM), ligand (17× stock in DMSO:t-butanol 1:4, final concentration=100 μM) and 1 mM CuSO4 (50× stock in water, final concentration=1 mM). The samples were allowed to react for 1 h at which point the samples were centrifuged (16,000×g, 5 min, 4° C.). […]

T1 sequence (Q8WV74 whole entry): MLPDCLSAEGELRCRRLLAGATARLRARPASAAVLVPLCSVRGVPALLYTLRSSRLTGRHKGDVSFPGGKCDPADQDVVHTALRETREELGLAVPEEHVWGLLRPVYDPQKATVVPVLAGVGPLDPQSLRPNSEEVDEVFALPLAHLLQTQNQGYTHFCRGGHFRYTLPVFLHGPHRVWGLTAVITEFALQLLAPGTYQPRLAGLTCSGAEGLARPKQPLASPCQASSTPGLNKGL

SMILES: O=C(c1ccc(N2CCOCC2)cc1)N1CCCC(N(Cc2ccccc2)C(=O)CCl)CC1 (stereo not shown) [BPK-29, N-benzyl-2-chloro-N-(1-(4-morpholinobenzoyl)azepan-4-yl)acetamide]
- BPK-29-competed isoTOP-ABPP analysis: Yes (Competed defined as showing R value ≥ 3.0 at 40 μM of test compound)
